Source: PubChem BioAssay AID1963852 (Molecular Pharmacology Branch, DTP, NCI, 2024)

System: 282377-053-R-J1-PDC complex spheroid viability
Assay: Anticancer human tumor 282377-053-R-J1-PDC patient-derived colon adenocarcinoma cell line growth inhibition [POLQ]
Conditions: for IC50: curve of first compound; for viability, T/C: stronger effect = lower value
Experimental: Multicellular complex tumor spheroid response to Polymerase (POL) inhibitors (novobiocin, ART-558, RP6685) in combination with a variety of drugs and investigational agents in selected tumor cell lines
The POL inhibitors (novobiocin, ART-558, and RP6685) were evaluated both individually and in combination with standard of care and investigational anticancer small molecules within a complex spheroid model of solid tumors. . Complex spheroids include a stromal component modeled by human endothelial cells (HUVEC) and fibroblasts modeled by human mesenchymal stem cells (MSCs). The concentration ranges selected for each drug and investigational agent were based upon clinically achievable concentrations if the clinical Cmax of the agent was known.
Compounds. The drugs and investigational agents: novobiocin (NSC847541), ART-558 (NSC835418), RP-6685 (NSC848927), peposertib (NSC802822), ceralasertib (NSC780249), elimusertib (NSC800525), camonsertib (NSC841442), AZD-1390 (NSC803789), olaparib (NSC753686), talazoparib (NSC767125), rucaparib (NSC756644), sotorasib (NSC818433), MRTX-1133 (NSC836407), SN-38 (NSC673596), topotecan (NSC609699), epotoside (NSC141540), doxorubicin (NSC123127), gemcitabine (NSC613327), 5-fluorouracil (NSC19893), paclitaxel (NSC125973), vemurafenib (NSC761431), MSA-2 (NSC828583), SN-011 (NSC837082), adavosertib (NSC754352), prexasertib (NSC758257), carboplatin (NSC241240) and oxaliplatin (NSC266046), were obtained from the National Cancer Institute (NCI) Developmental Therapeutics Program Chemical Repository (21). The FDA-approved anticancer drug set is available from the Developmental Therapeutics Program at https://dtp.cancer.gov/organization/dscb/obtaining/. […] The stock solutions were prepared in dimethyl sulfoxide (DMSO, Sigma-Aldrich, St. Louis, MO, cat. D2650), except for the platinum compounds which were prepared in saline (Quality Biological, Gaithersburg, MD, cat. 114-055-101), at 800-fold the tested concentration and stored at -70 degrees C prior to their use. All drugs and investigational agents were tested over a range starting from a high concentration at or near the clinical Cmax and decreasing in half-log increments. If the clinical Cmax for an agent had not been determined, the highest concentration tested was 10 microM, except for SN-38, which was tested at a high concentration of 1 microM.
Cell Culture. All cells were maintained in an incubator at 37 degrees C and 5% CO2 with 95% humidity. The PDC lines were cultured according to standard operating procedures established by the NCI PDMR (https://pdmr.cancer.gov). Table 3 of the manuscript, lists the cell lines along with the number of the three cell types plated to form the mct-spheroids and media for tumor cell growth. After thawing, all PDC lines, except 997537-175-T-J1-PDC and 415267-285-R-J2-PDC, were cultured in Matrigel-coated flasks prepared with a working solution of 1X Ham's F-12 nutrient mix, without supplementation (Thermo Fisher Scientific, cat. 11765054), 100 U/mL penicillin-streptomycin (Thermo Fisher Scientific, cat. 15140122), and 2.5% Matrigel (Corning Inc., Corning, NY, cat. 354248) for the first three passages. The two PDC lines 997537-175-T-J1-PDC and 415267-285-R-J2-PDC were cultured on uncoated flasks. The 857933-349-R-J2-PDC line was cultured in 6C/Colon 1B media containing advanced DMEM/F-12 (Thermo Fisher Scientific, cat. 12634028), 10 mM HEPES (Thermo Fisher Scientific, cat. 15630080), 1X GlutaMAX supplement (Thermo Fisher Scientific, cat. 35050061), 0.1 mg/mL primocin (InvivoGen, San Diego, CA, cat. ant-pm-2), 10% defined fetal bovine serum, heat inactivated (HyClone Laboratories Inc., Logan, UT, cat. SH30070.03HI), 50% L-WRN conditioned media (ATCC, cat. CRL-3276), 1.25 mM N-Acetyl-L-cysteine (Sigma-Aldrich, cat. A9165), 10 mM nicotinamide (Sigma-Aldrich, cat. N0636), 1X B-27 supplement (Thermo Fisher Scientific, cat. 17504044), 1X N-2 supplement (Thermo Fisher Scientific, cat. […]

[1] = second compound 0.0316 µM, first compound 0.0316 µM
[2] = second compound 0.0316 µM, first compound 0.1 µM
[3] = second compound 0.0316 µM, first compound 0.316 µM
[4] = second compound 0.0316 µM, first compound 1 µM
[5] = second compound 0.0316 µM, first compound 3.16 µM
[6] = second compound 0.0316 µM, first compound 10 µM
[7] = second compound 0.1 µM, first compound 0.0316 µM
[8] = second compound 0.1 µM, first compound 0.1 µM
[9] = second compound 0.1 µM, first compound 0.316 µM
[10] = second compound 0.1 µM, first compound 1 µM
[11] = second compound 0.1 µM, first compound 3.16 µM
[12] = second compound 0.1 µM, first compound 10 µM
[13] = second compound 0.316 µM, first compound 0.0316 µM
[14] = second compound 0.316 µM, first compound 0.1 µM
[15] = second compound 0.316 µM, first compound 0.316 µM
[16] = second compound 0.316 µM, first compound 1 µM
[17] = second compound 0.316 µM, first compound 3.16 µM
[18] = second compound 0.316 µM, first compound 10 µM
[19] = second compound 1 µM, first compound 0.0316 µM
[20] = second compound 1 µM, first compound 0.1 µM
[21] = second compound 1 µM, first compound 0.316 µM
[22] = second compound 1 µM, first compound 1 µM
[23] = second compound 1 µM, first compound 3.16 µM
[24] = second compound 1 µM, first compound 10 µM
[25] = second compound 3.16 µM, first compound 0.0316 µM
[26] = second compound 3.16 µM, first compound 0.1 µM
[27] = second compound 3.16 µM, first compound 0.316 µM
[28] = second compound 3.16 µM, first compound 1 µM
[29] = second compound 3.16 µM, first compound 3.16 µM
[30] = second compound 3.16 µM, first compound 10 µM
[31] = second compound 10 µM, first compound 0.0316 µM
[32] = second compound 10 µM, first compound 0.1 µM
[33] = second compound 10 µM, first compound 0.316 µM
[34] = second compound 10 µM, first compound 1 µM
[35] = second compound 10 µM, first compound 3.16 µM
[36] = second compound 10 µM, first compound 10 µM
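Further: spheroids exposed to compounds for seven days.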
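Wherever viability, T/C is given: 100% = DMSO vehicle control viability.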

CNCc1ccc(-c2[nH]c3cc(F)cc4c3c2CCNC4=O)cc1 + Nc1ccc(C#CCN(C(=O)Cc2ncc(C(F)(F)F)cc2C(F)(F)F)c2ccc(F)cc2)nn1
IC50 (second compound 0.0316 µM): > 10 µM | IC50 (second compound 0.1 µM): > 10 µM | IC50 (second compound 0.316 µM): > 10 µM | IC50 (second compound 1 µM): > 10 µM | IC50 (second compound 3.16 µM): > 10 µM | IC50 (second compound 10 µM): > 10 µM | viability, T/C [1]: 105% | viability, T/C [2]: 88.6% | viability, T/C [3]: 90% | viability, T/C [4]: 104% | viability, T/C [5]: 108% | viability, T/C [6]: 112% | viability, T/C [7]: 119% | viability, T/C [8]: 117% | viability, T/C [9]: 104% | viability, T/C [10]: 94.6% | viability, T/C [11]: 97.4% | viability, T/C [12]: 112% | viability, T/C [13]: 95.7% | viability, T/C [14]: 86.2% | viability, T/C [15]: 89.8% | viability, T/C [16]: 108% | viability, T/C [17]: 92% | viability, T/C [18]: 108% | viability, T/C [19]: 95% | viability, T/C [20]: 103% | viability, T/C [21]: 100% | viability, T/C [22]: 90.8% | viability, T/C [23]: 115% | viability, T/C [24]: 101% | viability, T/C [25]: 109% | viability, T/C [26]: 98.3% | viability, T/C [27]: 127% | viability, T/C [28]: 92.4% | viability, T/C [29]: 118% | viability, T/C [30]: 139% | viability, T/C [31]: 113% | viability, T/C [32]: 105% | viability, T/C [33]: 126% | viability, T/C [34]: 121% | viability, T/C [35]: 113% | viability, T/C [36]: 145%

COc1cc(C2c3cc4c(cc3C(OC3OC5COC(C)OC5C(O)C3O)C3COC(=O)C23)OCO4)cc(OC)c1O (centres undefined) + Nc1ccc(C#CCN(C(=O)Cc2ncc(C(F)(F)F)cc2C(F)(F)F)c2ccc(F)cc2)nn1
IC50 (second compound 0.0316 µM): > 10 µM | IC50 (second compound 0.1 µM): > 10 µM | IC50 (second compound 0.316 µM): > 10 µM | IC50 (second compound 1 µM): > 10 µM | IC50 (second compound 3.16 µM): > 10 µM | IC50 (second compound 10 µM): > 10 µM | viability, T/C [1]: 113% | viability, T/C [2]: 88.9% | viability, T/C [3]: 116% | viability, T/C [4]: 114% | viability, T/C [5]: 109% | viability, T/C [6]: 108% | viability, T/C [7]: 100% | viability, T/C [8]: 97.8% | viability, T/C [9]: 83.5% | viability, T/C [10]: 94.3% | viability, T/C [11]: 98% | viability, T/C [12]: 87.3% | viability, T/C [13]: 93.1% | viability, T/C [14]: 99.3% | viability, T/C [15]: 75.8% | viability, T/C [16]: 99.7% | viability, T/C [17]: 96.6% | viability, T/C [18]: 93.5% | viability, T/C [19]: 88.6% | viability, T/C [20]: 98.6% | viability, T/C [21]: 107% | viability, T/C [22]: 121% | viability, T/C [23]: 113% | viability, T/C [24]: 83% | viability, T/C [25]: 118% | viability, T/C [26]: 102% | viability, T/C [27]: 119% | viability, T/C [28]: 127% | viability, T/C [29]: 92.5% | viability, T/C [30]: 91.9% | viability, T/C [31]: 107% | viability, T/C [32]: 122% | viability, T/C [33]: 139% | viability, T/C [34]: 146% | viability, T/C [35]: 115% | viability, T/C [36]: 106%
